Where two headings read alike, the source gives them in different places.
Tested on: K. pneumoniae NVT1001 strains with ESBL or AmpC β-lactamase plasmids
Experiment: Etest MIC of β-lactams, OmpK35/36 loss, ΔramR and/or extended-spectrum β-lactamase and AmpC β-lactamase (Table 8)
Assay type: cell-based, Klebsiella pneumoniae
Conditions: for MIC: Klebsiella pneumoniae
Protocol: DNA fragments of the resistance genes along with their flanking regions were amplified from clinical plasmids via PCR with specific primer pairs. The resulting PCR fragments were digested and then cloned into the plasmid pACYC177 or pACYC184. The resulting plasmids were then transformed into K. pneumoniae strain NVT1001 via electroporation. The recombinant bacteria were plated onto LB agar plates containing kanamycin (50 mg/L) or chloramphenicol (50 mg/L), and the presence of the cloned gene was confirmed via PCR and DNA sequencing.
The MICs of antibiotics were determined using the Etest (Biodisk AB, Sweden) according to the manufacturer's instructions. The MICs from the Etest, which fall between standard two-fold dilutions, were rounded up to the next highest two-fold value. The MICs of ceftazidime and cefotaxime against K. pneumoniae NVT1001 harbouring the pACYC177 plasmid with blaOXA-48 were further determined using a broth microdilution test according to the recommendations of the CLSI,^25 and the results were interpreted according to the breakpoints established by the CLSI in 2017.^25 Meanwhile, due to the lack of CLSI breakpoints in 2016 and 2017, the results for cephalothin were interpreted according to the breakpoints established by the CLSI in 2015,^26 and the results for moxifloxacin were interpreted according to the breakpoints established by the EUCAST in 2017.^27

[1] = CMY-2 on pACYC177, WT (NVT1001), read-out: MIC
[2] = CMY-2 on pACYC177, Δ35 (ΔompK35 mutant)
[3] = CMY-2 on pACYC177, Δ35/36 (ΔompK35/36 mutant)
[4] = CMY-2 on pACYC177, Δ36 (ΔompK36 mutant)
[5] = CMY-2 on pACYC177, ΔramR mutant
[6] = CMY-2 on pACYC177, ΔramRΔ35 (ΔramRΔompK35 mutant)
[7] = CMY-2 on pACYC177, ΔramRΔ35/36 (ΔramRΔompK35/36 mutant)
[8] = CMY-2 on pACYC177, ΔramRΔ36 (ΔramRΔompK36 mutant)
[9] = CTX-M-14 on pACYC177, WT (NVT1001), read-out: MIC
[10] = CTX-M-14 on pACYC177, Δ35 (ΔompK35 mutant)
[11] = CTX-M-14 on pACYC177, Δ35/36 (ΔompK35/36 mutant)
[12] = CTX-M-14 on pACYC177, Δ36 (ΔompK36 mutant)
[13] = CTX-M-14 on pACYC177, ΔramR mutant
[14] = CTX-M-14 on pACYC177, ΔramRΔ35 (ΔramRΔompK35 mutant)
[15] = CTX-M-14 on pACYC177, ΔramRΔ35/36 (ΔramRΔompK35/36 mutant)
[16] = CTX-M-14 on pACYC177, ΔramRΔ36 (ΔramRΔompK36 mutant)
[17] = CTX-M-15 on pACYC177, WT (NVT1001), read-out: MIC
[18] = CTX-M-15 on pACYC177, Δ35 (ΔompK35 mutant)
[19] = CTX-M-15 on pACYC177, Δ35/36 (ΔompK35/36 mutant)
[20] = CTX-M-15 on pACYC177, Δ36 (ΔompK36 mutant)
[21] = CTX-M-15 on pACYC177, ΔramR mutant
[22] = CTX-M-15 on pACYC177, ΔramRΔ35 (ΔramRΔompK35 mutant)
[23] = CTX-M-15 on pACYC177, ΔramRΔ35/36 (ΔramRΔompK35/36 mutant)
[24] = CTX-M-15 on pACYC177, ΔramRΔ36 (ΔramRΔompK36 mutant)
[25] = DHA-1-AmpR on pACYC177, WT (NVT1001), read-out: MIC
[26] = DHA-1-AmpR on pACYC177, Δ35 (ΔompK35 mutant)
[27] = DHA-1-AmpR on pACYC177, Δ35/36 (ΔompK35/36 mutant)
[28] = DHA-1-AmpR on pACYC177, Δ36 (ΔompK36 mutant)
[29] = DHA-1-AmpR on pACYC177, ΔramR mutant
[30] = DHA-1-AmpR on pACYC177, ΔramRΔ35 (ΔramRΔompK35 mutant)
[31] = DHA-1-AmpR on pACYC177, ΔramRΔ35/36 (ΔramRΔompK35/36 mutant)
[32] = DHA-1-AmpR on pACYC177, ΔramRΔ36 (ΔramRΔompK36 mutant)
[33] = SHV-12 on pACYC177, WT (NVT1001), read-out: MIC
[34] = SHV-12 on pACYC177, Δ35 (ΔompK35 mutant)
[35] = SHV-12 on pACYC177, Δ35/36 (ΔompK35/36 mutant)
[36] = SHV-12 on pACYC177, Δ36 (ΔompK36 mutant)
[37] = SHV-12 on pACYC177, ΔramR mutant
[38] = SHV-12 on pACYC177, ΔramRΔ35 (ΔramRΔompK35 mutant)
[39] = SHV-12 on pACYC177, ΔramRΔ35/36 (ΔramRΔompK35/36 mutant)
[40] = SHV-12 on pACYC177, ΔramRΔ36 (ΔramRΔompK36 mutant)
[41] = no supplemental plasmid, WT (NVT1001), read-out: MIC
[42] = no supplemental plasmid, Δ35 (ΔompK35 mutant)
[43] = no supplemental plasmid, Δ35/36 (ΔompK35/36 mutant)
[44] = no supplemental plasmid, Δ36 (ΔompK36 mutant)
[45] = no supplemental plasmid, ΔramR mutant
[46] = no supplemental plasmid, ΔramRΔ35 (ΔramRΔompK35 mutant)
[47] = no supplemental plasmid, ΔramRΔ35/36 (ΔramRΔompK35/36 mutant)
[48] = no supplemental plasmid, ΔramRΔ36 (ΔramRΔompK36 mutant)

SMILES: CO[C@@]1(NC(=O)Cc2cccs2)C(=O)N2C(C(=O)O)=C(COC(N)=O)CS[C@@H]21 [Cefoxitin]
- MIC [1]: > 256 µg/mL
- MIC [2]: > 256 µg/mL
- MIC [3]: > 256 µg/mL
- MIC [4]: > 256 µg/mL
- MIC [5]: > 256 µg/mL
- MIC [6]: > 256 µg/mL
- MIC [7]: > 256 µg/mL
- MIC [8]: > 256 µg/mL
- MIC [9]: 4 µg/mL
- MIC [10]: 8 µg/mL
- MIC [11]: 64 µg/mL
- MIC [12]: 16 µg/mL
- MIC [13]: 64 µg/mL
- MIC [14]: 64 µg/mL
- MIC [15]: > 256 µg/mL
- MIC [16]: > 256 µg/mL
- MIC [17]: 4 µg/mL
- MIC [18]: 8 µg/mL
- MIC [19]: 64 µg/mL
- MIC [20]: 16 µg/mL
- MIC [21]: 64 µg/mL
- MIC [22]: 64 µg/mL
- MIC [23]: > 256 µg/mL
- MIC [24]: > 256 µg/mL
- MIC [25]: > 256 µg/mL
- MIC [26]: > 256 µg/mL
- MIC [27]: > 256 µg/mL
- MIC [28]: > 256 µg/mL
- MIC [29]: > 256 µg/mL
- MIC [30]: > 256 µg/mL
- MIC [31]: > 256 µg/mL
- MIC [32]: > 256 µg/mL
- MIC [33]: 4 µg/mL
- MIC [34]: 8 µg/mL
- MIC [35]: 128 µg/mL
- MIC [36]: 16 µg/mL
- MIC [37]: 64 µg/mL
- MIC [38]: 64 µg/mL
- MIC [39]: > 256 µg/mL
- MIC [40]: > 256 µg/mL
- MIC [41]: 4 µg/mL
- MIC [42]: 4 µg/mL
- MIC [43]: 128 µg/mL
- MIC [44]: 16 µg/mL
- MIC [45]: 64 µg/mL
- MIC [46]: 64 µg/mL
- MIC [47]: > 256 µg/mL
- MIC [48]: > 256 µg/mL
- effects on the MIC (production of ESBLs tested alone): no significant (≥4-fold) effects

SMILES: CCO/N=C(\C(=O)N[C@@H]1C(=O)N2C(C(=O)[O-])=C(Sc3nc(-c4cc[n+](C)cc4)cs3)CS[C@H]12)c1nsc(N)n1 [Ceftaroline]
- MIC [1]: 64 µg/mL
- MIC [2]: 64 µg/mL
- MIC [3]: > 256 µg/mL
- MIC [4]: 256 µg/mL
- MIC [5]: 64 µg/mL
- MIC [6]: 64 µg/mL
- MIC [7]: 128 µg/mL
- MIC [8]: 256 µg/mL
- MIC [9]: 128 µg/mL
- MIC [10]: > 256 µg/mL
- MIC [11]: > 256 µg/mL
- MIC [12]: > 256 µg/mL
- MIC [13]: > 256 µg/mL
- MIC [14]: > 256 µg/mL
- MIC [15]: > 256 µg/mL
- MIC [16]: > 256 µg/mL
- MIC [17]: > 256 µg/mL
- MIC [18]: > 256 µg/mL
- MIC [19]: > 256 µg/mL
- MIC [20]: > 256 µg/mL
- MIC [21]: > 256 µg/mL
- MIC [22]: > 256 µg/mL
- MIC [23]: > 256 µg/mL
- MIC [24]: > 256 µg/mL
- MIC [25]: 8 µg/mL
- MIC [26]: 8 µg/mL
- MIC [27]: 16 µg/mL
- MIC [28]: 8 µg/mL
- MIC [29]: 8 µg/mL
- MIC [30]: 8 µg/mL
- MIC [31]: 16 µg/mL
- MIC [32]: 16 µg/mL
- MIC [33]: 16 µg/mL
- MIC [34]: 16 µg/mL
- MIC [35]: 64 µg/mL
- MIC [36]: 16 µg/mL
- MIC [37]: 16 µg/mL
- MIC [38]: 16 µg/mL
- MIC [39]: 32 µg/mL
- MIC [40]: 32 µg/mL
- MIC [41]: 0.25 µg/mL
- MIC [42]: 0.25 µg/mL
- MIC [43]: 1 µg/mL
- MIC [44]: 0.5 µg/mL
- MIC [45]: 1 µg/mL
- MIC [46]: 1 µg/mL
- MIC [47]: 4 µg/mL
- MIC [48]: 4 µg/mL
